From patent US20220133894A1, “BISPHOSPHONATE-LINKED COMPOUNDS” (OREGON HEALTH & SCIENCE UNIVERSITY, priority 2019, published 2022)

How the values were obtained:
PC3-M-luc cells = assay: PCa orthotopic implantation, primary tumor growth and lung metastasis; assay type: in vivo, mice; conditions: orthotopic PC3-M-luc, 150 mg/kg KBU2046 daily
Procedure: To assess the efficacy of a spectrum of docetaxel concentrations, mice received orthotopic implants of PC3-M-luc cells, were treated with 0, 10 or 20 mg/kg docetaxel, and tumor growth monitored with weekly IVIS imaging. […] Subsequently, mice with orthotopic implants of PC3-M-luc cells were treated with docetaxel, KBU2046, docetaxel+KBU2046 or vehicle, as denoted, and effects on primary tumor growth and lung metastasis quantified (FIGS. 2A, 2B, and 2C).
Cohorts of N=10 mice bearing orthotopic implants of PC3-M-luc cells were treated daily with 150 mg/kg KUB2046 (46), intraperitoneal docetaxel 7.5 mg/kg weekly (doc), the combination (doc+46), or with oral and intraperitoneal vehicle (CO). KBU2046 treatment began 3 days before implantation and docetaxel began 1 week after. (A) Lung metastasis measured by qPCR for human Alu sequences, expressed as percent control (B) Weekly IVIS imaging of tumor. (C) Tumor weight. * denotes P<0.05 for differences between cohorts denoted by bars. All data are mean±SEM.
PCa orthotopic implantation: Orthotopic implantation of 2.5×10^5 PC3M-luc into 7-8 week old male athymic mice was performed as previously described by us (5, 52 Xu et al., above; and Pavese et al., J Vis Exp, e50873 (2013)). Daily oral gavage treatment with 150 mg/kg KBU2046 or was initiated 3 days prior to implantation and continued throughout the duration of the study. Weekly IP injections with 7.5 mg/kg docetaxel or control were administered beginning one week post implantation. Primary tumor out growth was monitored via weekly IVIS imaging. At the completion of the study the primary tumor was resected and weighed and lungs were resected and snap frozen. To determine the human PCa metastatic burden in each mouse lung, the snap frozen tissue was pulverized, DNA isolated and Alu-sequencing performed as previously described (19). […] (SEQ ID NO: 3). The 144RH probe was labeled with a 5′ fluorescent reporter (6-FAM) and a 3′ fluorescent quencher (Black Hole Quencher). The relative content of human DNA was calculated with using the comparative CT method, CT (sample)-CT(negative control). All samples were run in triplicate and were repeated.

LNCaP/AR-luc cells = assay: Castration resistant PCa orthotopic implantation, tumor outgrowth; assay type: in vivo, mice; conditions: orthotopic implants, 80 mg/kg KBU2046 oral, treatment from 12 weeks
Procedure: To complete our assessments of the androgen related paradigm, the effect of KBU2046 on resistance to hormone therapy was evaluated. The outgrowth of LNCaP/AR-luc cells in castrate mice is routinely utilized as a model to emulate the transition to a castration resistant phenotype (Tran et al., Science 324, 787-790 (2009)). In this model, tumor outgrowth is detectable ˜8 weeks post implantation, and growth kinetics are typically monitored until 16 weeks post implantation. Here, two treatment approaches were investigated, the effects of beginning treatment early at 4 weeks, or late at 12 weeks, and were performed in mice receiving subcutaneous or orthotopic implants, respectively (FIGS. 3F and 3G).
LNCaP or VCaP cells cultured in hormone free media were treated with R1881 (R), KBU2046 (46) and/or enzalutamide (E). (FIGS. 3A and 3B) Effects on AR-responsive gene expression. PSA expression was measured by qRT/PCR, normalized to GAPDH and expressed as a percent of control cells (N=3 replicates); * denotes P<0.05 for groups separated by bar. (FIGS. 3C and 3D) Effects on cell growth. Three day growth assays were performed. Data are the number of viable cells, expressed as % of control (N=3 replicates); * P<0.05 compared to control. (E) Effects on AR activation. […] Data are tumor size, expressed as luminescence intensity. All data are expressed as mean±SEM. […]

PC3-M cells = assay: PCa subcutaneous implantation, tumor growth; assay type: in vivo; conditions: oral 80 mg KBU2046/kg, weekly intraperitoneal docetaxel 20 mg/kg, KBU2046 added to control or docetaxel treated mice
Procedure: FIG. 1A depicts the effect of chemotherapy on the growth of androgen independent PC3-M PCa cells in vitro. Data are the mean±SEM (N=3 replicates) of cell viability in a 3 day growth assay in the presence of 10 μM KBU2046 or vehicle (control) treated with docetaxel or cabazitaxel. FIG. 1B depicts the effect of chemotherapy on the growth of androgen independent PCa cells in vivo. Mice received subcutaneous implants of PC3-M cells, were monitored until tumors were detectable (250 mm^3), and then treated daily with oral 80 mg KBU2046/kg (46) or vehicle (CO) and with weekly intraperitoneal docetaxel (doc) at 0 or 20 mg/kg, beginning on day 1, and tumor size measured. Data are mean±SEM, with N=20 mice per cohort.
PCa subcutaneous implantation: 2.5×10^5 PC3-M cells in sterile PBS were implanted into the right flank of 6-7 week old male athymic nude mice (Charles River) and tumor growth measurements were performed twice a week as previously described by us (Gordon et al., Chemotherapy-induced monoamine oxidase expression in prostate carcinoma functions as a cytoprotective resistance enzyme and associates with clinical outcomes. PLoS One 9, e104271 (2014)). […] Tumor measurements were obtained in a blinded fashion, and tumor volumes were calculated with the following formula: length×(width)^2×0.5.

## O=C1c2ccccc2OCC1c1ccc(F)cc1 (stereo not shown) [KBU2046, 3-(4-fluorophenyl)chroman-4-one]
PC3-M-luc cells; docetaxel 7.5 mg/kg weekly
  decrease of tumor weight compared to control: no significant effect
PC3-M-luc cells; docetaxel 7.5 mg/kg weekly intraperitoneal
  decrease of lung metastasis compared to control (human Alu qPCR): 20%
LNCaP/AR-luc cells
  tumor growth (outgrowth in castrate mice): did not alter
PC3-M cells
  tumor growth: did not significantly affect
